In experiment [1] the target is T1, Recombinant cryAB(R120G) protein (Homo sapiens, UniProt P02511, R120G).
T1 sequence (P02511 1-175 R120G): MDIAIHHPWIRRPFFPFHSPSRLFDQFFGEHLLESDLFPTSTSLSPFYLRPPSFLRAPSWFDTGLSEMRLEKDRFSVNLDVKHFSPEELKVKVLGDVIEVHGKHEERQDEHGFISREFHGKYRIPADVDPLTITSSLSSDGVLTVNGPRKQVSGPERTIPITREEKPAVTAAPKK
The experiment can be described thus: Kinetic turbidity aggregation assay of recombinant cryAB(R120G). In kind it is biochemical. The settings on record: for inhibition at 25 µM: read-out: % Inhibition of Protein Aggregation, 25 μM cmpd; for inhibition at 100 µM: read-out: % Inhibition of Protein Aggregation, 100 μM cmpd; for inhibition at 400 µM: read-out: % Inhibition of Protein Aggregation, 400 μM cmpd; for IC50: inhibition of cryAB(R120G) protein aggregation. The method, boiled down: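 Recombinant human cryAB R120G at 15 μM final in 50 mM Tris, 100 mM NaCl, 5 mM DTT, 0.01% Triton X-100, 0.05% PEG-8000 with 4% DMSO. Compounds added from 2-fold serial DMSO dilutions, run in quadruplicate; aggregation followed kinetically by turbidity.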

The target in experiment [2] is T2, Alpha-Crystallin Domain of alpha B crystallin containing the E117C mutation (Homo sapiens, UniProt P02511, E117C).
T2 construct: the Alpha-Crystallin Domain of alpha B crystallin containing the E117C mutation
T2 sequence (P02511 56-164 E117C limits assumed): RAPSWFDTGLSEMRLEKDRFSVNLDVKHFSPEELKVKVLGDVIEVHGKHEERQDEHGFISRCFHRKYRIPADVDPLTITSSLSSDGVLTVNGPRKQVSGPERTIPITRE
The experiment can be described thus: CryAB binding assay (MicroScale Thermophoresis, direct binding). The following applies: 100 nM Cy5-labeled protein, Tris buffer pH 8. The procedure:
Example A-2: CryAB Binding Assay
Affinities were determined by MicroScale Thermophoresis using a direct binding assay. Briefly, the Alpha-Crystallin Domain of alpha B crystallin containing the E117C mutation was alkylated with a Cy5 dye and monitored for binding at 100 nM protein in Tris buffer pH 8, containing 0.1% PEG-8000, 0.05% Tween-20, and 5% DMSO. Binding assays were performed by titrating ligand against a mixture of the dye-labeled protein and monitoring fluorescence changes indicating binding. Based on observed fluorescence measurements for each compound titration a KD was calculated using the Law of Mass Action equation.

The mark [3] stands for this setting: 25 μM compound, 15 μM cryAB(R120G), 42° C., absorbance at 550 nm.
Where [4] appears, read: 100 μM compound, 15 μM cryAB(R120G), 42° C., absorbance at 550 nm.
[5] abbreviates: 400 μM compound, 15 μM cryAB(R120G), 42° C., absorbance at 550 nm.

`CN(C)C(CNS(=O)(=O)c1ccc2cc[nH]c2c1)c1cn(C)c2ccccc12` (stereo not drawn) [Compound 10, N-(2-(dimethylamino)-2-(1-methyl-1H-indol-3-yl)ethyl)-1H-indole-6-sulfonamide]: the inhibition at 25 µM in experiment [1] (setting [3]) worked out at 69.8%. Further, the inhibition at 100 µM in experiment [1] (setting [4]) was 98.7%. Further, the inhibition at 400 µM in experiment [1] (setting [5]) amounted to 99.7%. The IC50 in experiment [1] lay within 10 to 50 µM. Further, the Kd in experiment [2] fell in the range of 10 to 50 µM.

For the compound `Cn1cc(C(CN(CC#N)S(=O)(=O)c2ccc3cc[nH]c3c2)N2CCCC2)c2ccccc21` (stereo not drawn) [Compound 93, N-(cyanomethyl)-N-(2-(1-methyl-1H-indol-3-yl)-2-(pyrrolidin-1-yl)ethyl)-1H-indole-6-sulfonamide], the inhibition at 25 µM in experiment [1] (setting [3]) amounted to 99.7%. Moreover, the inhibition at 100 µM in experiment [1] (setting [4]) turned out to be 94.3%. In experiment [1], the IC50 is no more than 10 µM. The compound also gave a Kd in experiment [2] of no more than 10 µM.

For `Cn1cc([C@H](CNS(=O)(=O)c2ccc3cc[nH]c3c2)N2CCCC2)c2ccccc21` [Compound 25, (R)-N-(2-(1-methyl-1H-indol-3-yl)-2-(pyrrolidin-1-yl)ethyl)-1H-indole-6-sulfonamide], the inhibition at 25 µM in experiment [1] (setting [3]) came out at 39%. In addition, the inhibition at 100 µM in experiment [1] (setting [4]) turned out to be 97.1%. For the same compound, in experiment [1] (setting [5]), the inhibition at 400 µM is 97.2%. Also, the IC50 in experiment [1] was in the range of 10 to 50 µM. Further, the Kd in experiment [2] fell in the range of 10 to 50 µM.

In the case of `Cn1cc([C@@H](CNS(=O)(=O)c2ccc3cc[nH]c3c2)N2CCCC2)c2ccccc21` [Compound 24, (S)-N-(2-(1-methyl-1H-indol-3-yl)-2-(pyrrolidin-1-yl)ethyl)-1H-indole-6-sulfonamide], in experiment [1] (setting [3]), the inhibition at 25 µM was 99.7%. Moreover, in experiment [1] (setting [4]), the inhibition at 100 µM was found to be 99.9%. For the same compound, the IC50 in experiment [1] was no more than 10 µM. For the same compound, the Kd in experiment [2] was no more than 10 µM.

With `CCn1nc([C@H](CNS(=O)(=O)c2ccc3cc[nH]c3c2)N2CCCC2)c2ccccc21` [Compound 92, (S)-N-(2-(1-ethyl-1H-indazol-3-yl)-2-(pyrrolidin-1-yl)ethyl)-1H-indole-6-sulfonamide], in experiment [1] (setting [3]), the inhibition at 25 µM stood at 49%. The inhibition at 100 µM in experiment [1] (setting [4]) worked out at 99.3%.

Take `Cn1cc([C@H](CNS(=O)(=O)c2ccc3cc[nH]c3c2)N2CCC2)c2ccccc21` [Compound 102, (R)-N-(2-(azetidin-1-yl)-2-(1-methyl-1H-indol-3-yl)ethyl)-1H-indole-6-sulfonamide]: in experiment [1] (setting [3]), the inhibition at 25 µM was 94%. Besides, the inhibition at 100 µM in experiment [1] (setting [4]) stood at 94.3%.

For the compound `CC(=O)N[C@H]1CCN(C(CNS(=O)(=O)c2ccc3cc[nH]c3c2)c2cn(C)c3ccccc23)C1` (stereo partly drawn) [Compound 35, N-((3S)-1-(2-(1H-indole-6-sulfonamido)-1-(1-methyl-1H-indol-3-yl)ethyl)pyrrolidin-3-yl)acetamide], the inhibition at 25 µM in experiment [1] (setting [3]) is -19%. The inhibition at 100 µM in experiment [1] (setting [4]) was determined as 41.7%.

With `Cn1cc([C@@H](CNS(=O)(=O)c2ccc3cc[nH]c3c2)N2CC[C@H](c3ccccc3)C2)c2ccccc21` [Compound 60, N-((S)-2-(1-methyl-1H-indol-3-yl)-2-((R)-3-phenylpyrrolidin-1-yl)ethyl)-1H-indole-6-sulfonamide], the inhibition at 25 µM in experiment [1] (setting [3]) was 57%. The inhibition at 100 µM in experiment [1] (setting [4]) is 94.9%.

For `CCn1cc(C(CNS(=O)(=O)c2ccc3cc[nH]c3c2)N(C)C)c2ccccc21` (stereo not drawn) [Compound 2, N-(2-(dimethylamino)-2-(1-ethyl-1H-indol-3-yl)ethyl)-1H-indole-6-sulfonamide], the inhibition at 25 µM in experiment [1] (setting [3]) came to 88%. The inhibition at 100 µM in experiment [1] (setting [4]) stood at 99.4%. Besides, in experiment [1] (setting [5]), the inhibition at 400 µM was determined as 95%. Besides, in experiment [1], the IC50 was no more than 10 µM.

On to `Cc1ccc2c(c1)c(C(CNS(=O)(=O)c1ccc3cc[nH]c3c1)N(C)C)cn2C` (stereo not drawn) [Compound 21, N-(2-(1,5-dimethyl-1H-indol-3-yl)-2-(dimethylamino)ethyl)-1H-indole-6-sulfonamide], for which the inhibition at 25 µM in experiment [1] (setting [3]) worked out at 76%. Also, the inhibition at 100 µM in experiment [1] (setting [4]) was 99.8%. For the same compound, the inhibition at 400 µM in experiment [1] (setting [5]) came to 90.7%.

As to `CN(C)C(CNS(=O)(=O)c1ccc2cn[nH]c2c1)c1cn(C)c2ccccc12` (stereo not drawn) [Compound 7, N-(2-(dimethylamino)-2-(1-methyl-1H-indol-3-yl)ethyl)-1H-indazole-6-sulfonamide], in experiment [1] (setting [3]), the inhibition at 25 µM is -21%. In experiment [1] (setting [4]), the inhibition at 100 µM is -32%. Moreover, the inhibition at 400 µM in experiment [1] (setting [5]) is 56.6%.

For the compound `CCN(C)C(CNS(=O)(=O)c1ccc2cc[nH]c2c1)c1cn(C)c2ccccc12` (stereo not drawn) [Compound 37, N-(2-(ethyl(methyl)amino)-2-(1-methyl-1H-indol-3-yl)ethyl)-1H-indole-6-sulfonamide], in experiment [1] (setting [3]), the inhibition at 25 µM is 92.8%. The inhibition at 100 µM in experiment [1] (setting [4]) was found to be 99.9%. Besides, the IC50 in experiment [1] was no more than 10 µM.

For `Cn1cc([C@@H](CNS(=O)(=O)c2ccc3cc[nH]c3c2)N2CCCC2)c2cnccc21` [Compound 80, (S)-N-(2-(1-methyl-1H-pyrrolo[3,2-c]pyridin-3-yl)-2-(pyrrolidin-1-yl)ethyl)-1H-indole-6-sulfonamide], in experiment [1] (setting [3]), the inhibition at 25 µM is -28%. For the same compound, in experiment [1] (setting [4]), the inhibition at 100 µM came out at 95.1%.

`Cn1cc([C@@H](CNS(=O)(=O)c2ccc3cc[nH]c3c2)N2CCCC2)c2cccnc21` [Compound 66, (S)-N-(2-(1-methyl-1H-pyrrolo[2,3-b]pyridin-3-yl)-2-(pyrrolidin-1-yl)ethyl)-1H-indole-6-sulfonamide]: the inhibition at 25 µM in experiment [1] (setting [3]) is -10%. Besides, the inhibition at 100 µM in experiment [1] (setting [4]) is 42%.

With `CC1CN(C(CNS(=O)(=O)c2ccc3cc[nH]c3c2)c2cn(C)c3ccccc23)C1` (stereo not drawn) [Compound 103, N-(2-(1-methyl-1H-indol-3-yl)-2-(3-methylazetidin-1-yl)ethyl)-1H-indole-6-sulfonamide], in experiment [1] (setting [3]), the inhibition at 25 µM was 59%. Further, the inhibition at 100 µM in experiment [1] (setting [4]) worked out at 99.7%.

`CC(C)n1cc(C(CNS(=O)(=O)c2ccc3cc[nH]c3c2)N(C)C)c2ccccc21` (stereo not drawn) [Compound 1, N-(2-(dimethylamino)-2-(1-isopropyl-1H-indol-3-yl)ethyl)-1H-indole-6-sulfonamide]: in experiment [1] (setting [3]), the “% Inhibition of Protein Aggregation, 25 μM cmpd” value is given as 84%. For the same compound, the “% Inhibition of Protein Aggregation, 100 μM cmpd” value in experiment [1] (setting [4]) turned out to be 99.5%. Besides, the “% Inhibition of Protein Aggregation, 400 μM cmpd” value in experiment [1] (setting [5]) is reported as 96.6%. Also, the IC50 in experiment [1] is no more than 10 µM.

Take `Cn1cc(C(CNS(=O)(=O)c2ccc3cc[nH]c3c2)N2CC[C@@H](F)C2)c2ccccc21` (stereo partly drawn) [Compound 45, N-(2-((R)-3-fluoropyrrolidin-1-yl)-2-(1-methyl-1H-indol-3-yl)ethyl)-1H-indole-6-sulfonamide]: in experiment [1] (setting [3]), the inhibition at 25 µM came to 95%. Further, in experiment [1] (setting [4]), the inhibition at 100 µM was 69.3%.

As for `CN(CCO)C(CNS(=O)(=O)c1ccc2cc[nH]c2c1)c1cn(C)c2ccccc12` (stereo not drawn) [Compound 32, N-(2-((2-hydroxyethyl)(methyl)amino)-2-(1-methyl-1H-indol-3-yl)ethyl)-1H-indole-6-sulfonamide], in experiment [1] (setting [3]), the inhibition at 25 µM was determined as 60%. Moreover, in experiment [1] (setting [4]), the inhibition at 100 µM is 98.5%. For the same compound, the IC50 in experiment [1] was in the range of 10 to 50 µM.

Turning to `Cc1cc2cc[nH]c2cc1S(=O)(=O)NCC(c1cn(C)c2ccccc12)N(C)C` (stereo not drawn) [Compound 63, N-(2-(dimethylamino)-2-(1-methyl-1H-indol-3-yl)ethyl)-5-methyl-1H-indole-6-sulfonamide], the inhibition at 25 µM in experiment [1] (setting [3]) was 25%. Besides, in experiment [1] (setting [4]), the inhibition at 100 µM was 99.2%.

For the compound `Cn1cc(C(CNS(=O)(=O)c2ccc3cc[nH]c3c2)N2CCCC2)c2ncccc21` (stereo not drawn) [Compound 54, N-(2-(1-methyl-1H-pyrrolo[3,2-b]pyridin-3-yl)-2-(pyrrolidin-1-yl)ethyl)-1H-indole-6-sulfonamide], the inhibition at 25 µM in experiment [1] (setting [3]) is -41%. Further, the inhibition at 100 µM in experiment [1] (setting [4]) was found to be 66%.

For the compound `Cn1cc([C@H](CNS(=O)(=O)c2ccc3cc[nH]c3c2)N2CCCC2)c2cccnc21` [Compound 67, (R)-N-(2-(1-methyl-1H-pyrrolo[2,3-b]pyridin-3-yl)-2-(pyrrolidin-1-yl)ethyl)-1H-indole-6-sulfonamide], the inhibition at 25 µM in experiment [1] (setting [3]) was found to be 34%. Also, in experiment [1] (setting [4]), the inhibition at 100 µM worked out at 73.3%.

On to `CC(C)n1cc(C(CNS(=O)(=O)c2cccc3cc[nH]c23)N(C)C)c2ccccc21` (stereo not drawn) [Compound 14, N-(2-(dimethylamino)-2-(1-isopropyl-1H-indol-3-yl)ethyl)-1H-indole-7-sulfonamide], for which the inhibition at 25 µM in experiment [1] (setting [3]) is 11%. In addition, the inhibition at 100 µM in experiment [1] (setting [4]) was 74.9%. Moreover, in experiment [1] (setting [5]), the inhibition at 400 µM came out at 81%.

Turning to `CN(C)C(CNS(=O)(=O)c1ccc2nc[nH]c2c1)c1cn(C)c2ccccc12` (stereo not drawn) [Compound 6, N-(2-(dimethylamino)-2-(1-methyl-1H-indol-3-yl)ethyl)-1H-benzo[d]imidazole-6-sulfonamide], the inhibition at 25 µM in experiment [1] (setting [3]) stood at 19.5%. Besides, the inhibition at 100 µM in experiment [1] (setting [4]) was -38%. The inhibition at 400 µM in experiment [1] (setting [5]) worked out at 18.8%.

One may read the inhibition as the relative decrease from the control value, in per cent. For orientation: IC50 means the midpoint of a concentration-inhibition curve. The term Kd denotes the constant that tells how readily two partners part at equilibrium.

(Values after patent publication US12637425B2, “Compounds and formulations for treating ophthalmic diseases” (Visus Therapeutics, Inc., priority 2020, dated 2026).)
